In BindingDB's records for doi:10.1016/s0960-894x(99)00495-3 (Tokyo University of Pharmacy & Life Science, 1999) one finds IC50 data, which are given here for five compounds.

A short description of the experiment: Compound was evaluated for inhibition of PNP-catalyzed inosine […] in Cellulomonas sp.

Structures are written as SMILES. pIC50: −log10 of the molar value.

For the compound `Nc1nc2c(ncn2CCCCC(F)(F)P(=O)(O)O)c(=O)[nH]1` [9-(5',5'-difluoro-5'-phosphonopentyl)guanine], the pIC50 was 6.27.
To `O=c1[nH]cnc2c1ncn2CC[C@@H]1C[C@H]1C(F)(F)P(=O)(O)O` [(Difluoro-{(1R,2S)-2-[2-(6-oxo-1,6-dihydro-purin-9-yl)-ethyl]-cyclopropyl}-methyl)-phosphonic acid] belongs 7.15; to `Nc1nc2c(ncn2CC[C@@H]2C[C@H]2C(F)(F)P(=O)(O)O)c(=O)[nH]1` [({(1R,2S)-2-[2-(2-Amino-6-oxo-1,6-dihydro-purin-9-yl)-ethyl]-cyclopropyl}-difluoro-methyl)-phosphonic acid], 6.41; to `O=c1[nH]cnc2c1ncn2C[C@@H]1COC[C@@H]1CC(F)(F)P(=O)(O)O` [{1,1-Difluoro-2-[(3R,4R)-4-(6-oxo-1,6-dihydro-purin-9-ylmethyl)-tetrahydro-furan-3-yl]-ethyl}-phosphonic acid], 7.46.
The compound `O=c1[nH]cnc2c1ncn2C[C@H]1COC[C@@H]1CC(F)(F)P(=O)(O)O` [{1,1-Difluoro-2-[(3R,4S)-4-(6-oxo-1,6-dihydro-purin-9-ylmethyl)-tetrahydro-furan-3-yl]-ethyl}-phosphonic acid] had a negative logarithm of the IC50 (pIC50) of 7.43.

In general, pIC50 refers to the negative decadic logarithm of the IC50, by convention in mol/L. A lower pIC50 goes with a high IC50.
